Measured values taken from article PMC12037410, “Pharmacological targeting of BMAL1 modulates circadian and immune pathways” (Nature Chemical Biology, 2025).

Target: BMAL1 (Homo sapiens, UniProt O00327)
Design: PASB domain (residues 338–449); Protein thermal shift (PTS) fragment screen on recombinant human BMAL1(PASB), shift of melting temperature
Conditions: dTmB; binder

BMAL1, sequence (O00327 338-449): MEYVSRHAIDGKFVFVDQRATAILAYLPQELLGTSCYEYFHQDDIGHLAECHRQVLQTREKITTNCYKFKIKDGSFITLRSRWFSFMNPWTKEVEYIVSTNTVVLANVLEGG

How did the “Bmal1(PASB) dTmB” value turn out when `NCCOC(c1ccc(F)cc1)c1ccc(F)cc1` [Prestw-Frag-1925, Compound 448] was run?
Its value is -1.45 °C.

With `CC(=O)Nc1ncc([N+](=O)[O-])s1` [Prestw-Frag-1750, Compound 291] as the molecule, how does the “Bmal1(PASB) dTmB” value read?
The value was 0.07 °C.

For `CCN(CC)CCNC(=O)c1ccc(N)c(Cl)c1` [Prestw-Frag-3120, Compound 278], which “Bmal1(PASB) dTmB” value is on record?
Its value is -0.15 °C.

`Nc1ccc2c(c1)CCCC2` [Prestw-Frag-3682, Compound 71] was tested. Which “Bmal1(PASB) dTmB” value did it give?
Its value is 0.33 °C.

Which “Bmal1(PASB) dTmB” value does the source give for `OCC1CCNCC1` [Prestw-Frag-3727, Compound 325] here?
The value was 0.08 °C.

How did the “Bmal1(PASB) dTmB” value turn out when `CC1CCC(=O)O1` (stereo not drawn) [Prestw-Frag-3757, Compound 251] was run?
Its value is -0.06 °C.

With `CCCC(=O)c1ccc(F)cc1` [Prestw-Frag-1368, Compound 311] as the molecule, how does the “Bmal1(PASB) dTmB” value read?
The value was -0.19 °C.

How did the “Bmal1(PASB) dTmB” value turn out when `O=C(O)c1cc(-c2ccc(F)cc2)ccc1O` [Prestw-Frag-1239, Compound 277] was run?
The value was -1.13 °C.

With `O=C(OC1CCCCC1)c1ccccc1O` [Prestw-Frag-1382, Compound 265] as the molecule, how does the “Bmal1(PASB) dTmB” value read?
Its value is 0.09 °C.

With `COc1ccc(CCN)cc1OC` [Prestw-Frag-3454, Compound 202] as the molecule, how does the “Bmal1(PASB) dTmB” value read?
The value was -0.13 °C.

For `O=C(O)c1ccccc1O` [Prestw-Frag-1045, Compound 55], which “Bmal1(PASB) dTmB” value is on record?
The value was -0.68 °C.

`O=C(O)CC1CCCCC1` [Prestw-Frag-3668, Compound 169] was tested. Which “Bmal1(PASB) dTmB” value did it give?
Its value is 0.13 °C.

`Clc1ccc(CNc2ccccn2)cc1` [Prestw-Frag-2356, Compound 344] was tested. Which “Bmal1(PASB) dTmB” value did it give?
The value was -0.84 °C.

Which “Bmal1(PASB) dTmB” value does the source give for `NCCc1cnc[nH]1` [Prestw-Frag-1999, Compound 330] here?
Its value is -0.23 °C.

With `CN1CCC[C@H]1c1cccnc1` [Prestw-Frag-1187, Compound 13] as the molecule, how does the “Bmal1(PASB) dTmB” value read?
The value was -0.52 °C.

`Nc1nncs1` [Prestw-Frag-1009, Compound 188] was tested. Which “Bmal1(PASB) dTmB” value did it give?
The value was -0.33 °C.

How did the “Bmal1(PASB) dTmB” value turn out when `OC(c1ccccc1)c1ccccn1` (stereo not drawn) [Prestw-Frag-2238, Compound 262] was run?
The value was -0.66 °C.

With `COC(=O)C(O)c1ccccc1` (stereo not drawn) [Prestw-Frag-2423, Compound 176] as the molecule, how does the “Bmal1(PASB) dTmB” value read?
The value was 0.02 °C.

How did the “Bmal1(PASB) dTmB” value turn out when `O=C1COc2ccccc21` [Prestw-Frag-1361, Compound 165] was run?
The value was -0.13 °C.

How did the “Bmal1(PASB) dTmB” value turn out when `CC(C(=O)O)c1ccccc1` (stereo not drawn) [Prestw-Frag-1859, Compound 194] was run?
Its value is -0.02 °C.

How did the “Bmal1(PASB) dTmB” value turn out when `CCOc1ccccn1` [Prestw-Frag-2477, Compound 94] was run?
Its value is -0.05 °C.

Which “Bmal1(PASB) dTmB” value does the source give for `COc1ccccc1OCCO` [Prestw-Frag-1338, Compound 363] here?
Its value is 0.76 °C.

For `NC(=O)COc1ccccc1` [Prestw-Frag-2578, Compound 235], which “Bmal1(PASB) dTmB” value is on record?
The value was -0.19 °C.

With `Oc1ccc2[nH]ccc2c1` [Prestw-Frag-1645, Compound 308] as the molecule, how does the “Bmal1(PASB) dTmB” value read?
The value was 0.24 °C.

For `OCc1cc2ccccc2[nH]1` [Prestw-Frag-1297, Compound 419], which “Bmal1(PASB) dTmB” value is on record?
The value was 0.70 °C.

How did the “Bmal1(PASB) dTmB” value turn out when `CCN(CC)CCOC(=O)c1ccccc1` [Prestw-Frag-1735, Compound 406] was run?
The value was -0.48 °C.

How did the “Bmal1(PASB) dTmB” value turn out when `O=C(O)CNC(=O)c1ccccc1` [Prestw-Frag-2576, Compound 196] was run?
Its value is 0.18 °C.

With `NC(=O)NS(=O)(=O)c1ccccc1` [Prestw-Frag-1006, Compound 100] as the molecule, how does the “Bmal1(PASB) dTmB” value read?
Its value is 0.09 °C.

With `COc1cc(C)cc(C)c1C` [Prestw-Frag-1506, Compound 359] as the molecule, how does the “Bmal1(PASB) dTmB” value read?
The value was -0.12 °C.

With `Cc1ncsc1CCO` [Prestw-Frag-1098, Compound 189] as the molecule, how does the “Bmal1(PASB) dTmB” value read?
Its value is -0.60 °C.

Which “Bmal1(PASB) dTmB” value does the source give for `O=c1ccn([C@H]2C[C@H](O)[C@@H](CO)O2)c(=O)[nH]1` [Prestw-Frag-2769, Compound 275] here?
The value was 0.09 °C.

How did the “Bmal1(PASB) dTmB” value turn out when `CC(=O)N1CCN(c2ccc(O)cc2)CC1` [Prestw-Frag-2047, Compound 27] was run?
The value was -2.09 °C.

Which “Bmal1(PASB) dTmB” value does the source give for `NCC1(c2ccccc2)CC1` [Prestw-Frag-3751, Compound 367] here?
Its value is -0.24 °C.

With `Cc1cc(-c2ccccc2)nnc1N` [Prestw-Frag-1003, Compound 243] as the molecule, how does the “Bmal1(PASB) dTmB” value read?
Its value is -0.88 °C.

For `Cc1noc(N)c1C` [Prestw-Frag-2021, Compound 114], which “Bmal1(PASB) dTmB” value is on record?
The value was -0.18 °C.

How did the “Bmal1(PASB) dTmB” value turn out when `COC(=O)c1ccc(N)cc1` [Prestw-Frag-2346, Compound 380] was run?
The value was -0.11 °C.

For `Nc1ccc[nH]c1=O` [Prestw-Frag-1060, Compound 123], which “Bmal1(PASB) dTmB” value is on record?
The value was -2.04 °C.

`Cc1ccccc1Nc1ncccc1C(=O)O` [Prestw-Frag-2806, Compound 441] was tested. Which “Bmal1(PASB) dTmB” value did it give?
Its value is 0.29 °C.

How did the “Bmal1(PASB) dTmB” value turn out when `Nc1cccc(C(F)(F)F)c1` [Prestw-Frag-1322, Compound 231] was run?
Its value is 0.29 °C.

With `c1ccc2nccnc2c1` [Prestw-Frag-3033, Compound 315] as the molecule, how does the “Bmal1(PASB) dTmB” value read?
Its value is 0.23 °C.

With `c1ccc2c(c1)NCCO2` [Prestw-Frag-3732, Compound 54] as the molecule, how does the “Bmal1(PASB) dTmB” value read?
Its value is 0.57 °C.

Which “Bmal1(PASB) dTmB” value does the source give for `Cc1c(N)cccc1C(F)(F)F` [Prestw-Frag-1189, Compound 334] here?
The value was -0.15 °C.

For `COc1ccc(N2CCN(c3ccc(N)cc3)CC2)cc1` [Prestw-Frag-1557, Compound 35], which “Bmal1(PASB) dTmB” value is on record?
The value was 0.19 °C.

`O=C(O)c1cc(=O)c2ccccc2o1` [Prestw-Frag-2352, Compound 352] was tested. Which “Bmal1(PASB) dTmB” value did it give?
The value was -0.25 °C.

With `C#Cc1cccc(N)c1` [Prestw-Frag-3669, Compound 7] as the molecule, how does the “Bmal1(PASB) dTmB” value read?
Its value is -3.75 °C.

`Oc1ccc2cc[nH]c2c1` [Prestw-Frag-1374, Compound 33] was tested. Which “Bmal1(PASB) dTmB” value did it give?
Its value is 0.97 °C.

How did the “Bmal1(PASB) dTmB” value turn out when `COc1ccc(Cc2ccc(OC)cc2)cc1` [Prestw-Frag-1033, Compound 354] was run?
Its value is -0.11 °C.

How did the “Bmal1(PASB) dTmB” value turn out when `COc1ccc(OC)c(C(C)O)c1` (stereo not drawn) [Prestw-Frag-2208, Compound 283] was run?
Its value is -0.43 °C.

Which “Bmal1(PASB) dTmB” value does the source give for `CS(=O)(=O)Nc1ccccc1` [Prestw-Frag-2755, Compound 281] here?
Its value is -0.10 °C.

How did the “Bmal1(PASB) dTmB” value turn out when `c1ccc2c3c([nH]c2c1)CNCC3` [Prestw-Frag-1014, Compound 154] was run?
The value was -0.81 °C.

How did the “Bmal1(PASB) dTmB” value turn out when `OC(c1ccccc1)(c1ccccc1)C1CCNCC1` [Prestw-Frag-1654, Compound 403] was run?
The value was -1.27 °C.

For `OC1CCN(c2ccccc2F)CC1` [Prestw-Frag-2803, Compound 151], which “Bmal1(PASB) dTmB” value is on record?
The value was -0.09 °C.

`O=c1[nH]ncc2ccccc12` [Prestw-Frag-1560, Compound 345] was tested. Which “Bmal1(PASB) dTmB” value did it give?
The value was -0.38 °C.

Which “Bmal1(PASB) dTmB” value does the source give for `O=[N+]([O-])c1ccc(CO)cc1` [Prestw-Frag-1071, Compound 105] here?
Its value is -0.41 °C.

How did the “Bmal1(PASB) dTmB” value turn out when `Nc1nc(N)nc(-c2ccccc2)n1` [Prestw-Frag-3190, Compound 387] was run?
Its value is -0.27 °C.

How did the “Bmal1(PASB) dTmB” value turn out when `O=C1COc2cc(O)ccc21` [Prestw-Frag-3703, Compound 77] was run?
The value was 0.62 °C.

How did the “Bmal1(PASB) dTmB” value turn out when `COc1ccc(C(C)=O)c(O)c1` [Prestw-Frag-2701, Compound 250] was run?
The value was 0.06 °C.
